In data set [1] the test system is human tumor xenograft models. As to the kind of experiment: Antitumor activity in human tumor xenograft mice models. It is filed as in vivo. Particulars: five human tumor xenograft models in nude mice, i.v. on day 1, 8, 15, and 22. An excerpt:
This included starting tumor volumes in the range of approximately 80-110 mm^3 but also initial starting tumor volumes of up to approximately 400 mm^3. Furthermore, in most cases therapy with albumin-binding maytansinoids 30 and 31 induced long-term remissions and a decrease in Relative Tumor Volume (RTV). […] Experimental procedure and the results in the tumor-bearing mice models are described in detail in Examples 11-19 and FIGS. 3-16.
Female immunodeficient NMRI nude mice, from Charles River, received unilateral tumor implants subcutaneously in the left flank while under isoflurane anesthesia with human cancer tumors until tumors were palpable and had reached a volume of 80-200 mm^3 (unless otherwise stated).
Animals were kept in cages, the temperature inside the cages maintained at 25±1° C. with a relative humidity of 45-65% and an air change rate in the cage of 60-fold per hour. They were kept under a 14 h light: 10 h dark, artificial light cycle. The animals were fed with autoclaved Teklad Global 19% Protein Extruded Diet (T.2019S.12) from Envigo RMS SARL and had access to sterile filtered and acidified (pH 2.5) tap water, which was changed twice weekly. Feed and water were provided ad libitum. […] Animals were routinely monitored twice daily on working days and daily on Saturdays and Sundays. […] Relative body weights (RBW) of individual animals were calculated by dividing the individual absolute body weight on day X (BWx) by the individual body weight on the day of randomization multiplied by 100%. The tumor volume was determined by a two-dimensional measurement with calipers on the day of randomization (day 0) and then twice weekly. Tumor volumes were calculated according to the following equation: Tumor Vol [mm^3]=1 [mm]×w^2 [mm^2]×0.5, where “1” is the length and “w” is width of the tumor. The relative volume of an individual tumor on day X (RTVx) was calculated by dividing the absolute individual tumor volume [mm^3] of the respective tumor on day X (Tx) by the absolute individual tumor volume of the same tumor on the day of randomization multiplied by 100%. […]
(In general: Xenograft models place foreign cells or tissue in a host animal.)

Data set [2] deals with T1, albumin (Homo sapiens, UniProt P02768).
T1 construct: tissue Zen-Bio; host or cells: pooled human whole blood (K2EDTA, 36 donors) and plasma prepared from it
T1 sequence (P02768 25-609): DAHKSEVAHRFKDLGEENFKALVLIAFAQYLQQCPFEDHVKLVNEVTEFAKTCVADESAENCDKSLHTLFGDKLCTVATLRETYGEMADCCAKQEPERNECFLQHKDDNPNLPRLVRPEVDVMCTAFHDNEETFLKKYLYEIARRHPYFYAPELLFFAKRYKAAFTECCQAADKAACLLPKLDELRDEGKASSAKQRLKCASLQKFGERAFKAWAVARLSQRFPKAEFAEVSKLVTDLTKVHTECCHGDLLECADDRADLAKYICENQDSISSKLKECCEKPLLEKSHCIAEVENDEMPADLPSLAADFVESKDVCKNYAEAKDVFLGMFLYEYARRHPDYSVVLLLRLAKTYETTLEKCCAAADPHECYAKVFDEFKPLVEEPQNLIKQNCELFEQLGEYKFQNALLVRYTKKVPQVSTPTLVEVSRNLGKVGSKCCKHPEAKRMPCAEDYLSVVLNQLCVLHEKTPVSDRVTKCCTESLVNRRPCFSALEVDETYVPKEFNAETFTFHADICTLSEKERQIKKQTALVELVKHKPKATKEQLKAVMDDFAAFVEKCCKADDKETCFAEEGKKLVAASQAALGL
As to the kind of experiment: in vitro. It is filed as in vitro ADME. Particulars: 37° C., 12.0 μM, read-out: % bound (converted). As for the experimental part:
To study the binding kinetics of the albumin-binding maytansinoids in pooled human plasma and pooled human whole blood, the compounds were incubated together with pooled human plasma at 37° C. and samples were taken at specified time points. Remaining albumin-binding maytansinoids were quantitated by HPLC.
To study the binding kinetics in human whole blood, the blood (K2EDTA, 36 donors, Zen-Bio; 900 μL) was preincubated at 37° C. for 30 min in a heating block. To study the binding kinetics in pooled human plasma, the pooled whole blood was centrifuged (10 min, 1811 g), the supernatant plasma was collected and then preincubated at 37° C. for 30 min.
The albumin-binding maytansinoid was added to the preincubated whole blood/plasma sample as a 10-fold dilution in PBS of a 1.2 mM stock solution in 2.5% propylene glycol in 10 mM sodium phosphate buffer and 1.48 mM citrate (100 μL) to produce a 12.0 μM solution of the respective albumin-binding maytansinoid. Samples (190 μL) were taken after 15 s, 2 min, 4 min, 8 min and 15 min. The samples were directly added to 760 μL MeCN containing maytansine (5 μg/mL) as an internal standard and vortexed for 1 min. After centrifugation (1 min at 12,044 g) the supernatant (850 μL) was concentrated under high vacuum. The residue was taken up in DMSO/water (1:1 v/v; 95 μL) and then analyzed by RP-HPLC. Percentage of binding was determined by comparison of the area under the curve (AUC) at 220 nm of the albumin-binding maytansinoid relative to a control sample (100% value) in PBS buffer. All experiments were performed in triplicates.
HPLC method: Phenomenex Kinetex Polar C18, 2.6 μm, 100 Å, 150×4.6 mm; eluent A (95:5 5 mM ammonium acetate: MeCN) and eluent B (5:95 5 mM ammonium acetate: MeCN) eluting with a gradient of eluent B (30% 0-0.5 min, 30-95% 0.5-9.0 min, 95% 11.0 min, 95-30% 11.0-14.5 min, 30% 15.0 min, flow rate=1.0 mL/min). Column oven temperature ambient temperature; autosampler temperature 4° C.; 50 μL of injection volume.

Like-named read-outs stand apart in the source and are kept apart here.

One compound from patent publication US11572373B2, “Maytansinoid-based drug delivery systems” (LADRX CORPORATION, priority 2017, dated 2023) can be followed below.

In the case of `COc1cc2cc(c1Cl)N(C)C(=O)C[C@H](OC(=O)COc1cccc(/C(C)=N/NC(=O)c3ccc(NC(=O)CCCCCN4C(=O)C=CC4=O)cc3S(=O)(=O)O)c1)[C@]1(C)O[C@H]1[C@H](C)[C@@H]1C[C@@](O)(NC(=O)O1)[C@H](OC)/C=C/C=C(\C)C2` [Compound 31], the antitumor activity result in data set [1] was “partial and complete tumor regressions”. Moreover, the fraction unbound in data set [2] (blood, pooled human whole blood, 15 s) is 0.008; in data set [2] (blood, pooled human whole blood, 8 min) it was 0.007; in data set [2] (plasma, pooled human plasma, 15 s), 0.08; in data set [2] (plasma, pooled human plasma, 8 min), 0.014.
